Reference: ChEMBL document CHEMBL4004782, “A review on tacrine-based scaffolds as multi-target drugs (MTDLs) for Alzheimer's disease” (Eur J Med Chem, 2017)

Key:
[1] = target: T1, Acetylcholinesterase (Bos taurus) (UniProt P23795); test: Displacement of propidium iodide from bovine erythrocyte AchE at 1 uM incubated for 6 hrs followed by addition of propidium iodide and measured after 15 mins by thioflavin T-fluorescence assay
T1 sequence (whole entry): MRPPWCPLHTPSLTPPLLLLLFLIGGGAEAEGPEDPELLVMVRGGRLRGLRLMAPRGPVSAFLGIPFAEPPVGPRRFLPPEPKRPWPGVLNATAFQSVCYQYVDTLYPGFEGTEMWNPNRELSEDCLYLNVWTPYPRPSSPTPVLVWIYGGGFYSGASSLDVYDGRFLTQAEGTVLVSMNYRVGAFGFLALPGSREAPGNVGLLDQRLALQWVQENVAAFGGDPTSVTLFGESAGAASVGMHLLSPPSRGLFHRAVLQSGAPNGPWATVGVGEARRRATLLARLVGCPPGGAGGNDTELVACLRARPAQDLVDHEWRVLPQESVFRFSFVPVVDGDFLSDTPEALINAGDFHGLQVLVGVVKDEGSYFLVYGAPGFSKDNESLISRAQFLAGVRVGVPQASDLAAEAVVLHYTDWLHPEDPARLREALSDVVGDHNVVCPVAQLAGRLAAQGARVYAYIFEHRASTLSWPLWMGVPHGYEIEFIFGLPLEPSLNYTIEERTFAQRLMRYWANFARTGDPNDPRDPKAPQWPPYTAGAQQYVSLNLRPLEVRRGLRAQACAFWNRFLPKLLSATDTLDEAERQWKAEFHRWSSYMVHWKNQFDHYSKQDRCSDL

[2] = target: T1, Acetylcholinesterase (Bos taurus); test: Displacement of propidium iodide from bovine erythrocyte AchE at 3 uM incubated for 6 hrs followed by addition of propidium iodide and measured after 15 mins by thioflavin T-fluorescence assay
[3] = target: T1, Acetylcholinesterase (Bos taurus); test: Displacement of propidium iodide from bovine erythrocyte AchE at 0.3 uM incubated for 6 hrs followed by addition of propidium iodide and measured after 15 mins by thioflavin T-fluorescence assay
[4] = target: Acetylcholinesterase (Homo sapiens, UniProt P22303); test: Inhibition of human AchE-induced amyloid beta (1 to 40) aggregation after 48 hrs by thioflavin T fluorescence spectroscopic method
Sequence of Acetylcholinesterase (Homo sapiens, UniProt P22303) (P22303 whole entry): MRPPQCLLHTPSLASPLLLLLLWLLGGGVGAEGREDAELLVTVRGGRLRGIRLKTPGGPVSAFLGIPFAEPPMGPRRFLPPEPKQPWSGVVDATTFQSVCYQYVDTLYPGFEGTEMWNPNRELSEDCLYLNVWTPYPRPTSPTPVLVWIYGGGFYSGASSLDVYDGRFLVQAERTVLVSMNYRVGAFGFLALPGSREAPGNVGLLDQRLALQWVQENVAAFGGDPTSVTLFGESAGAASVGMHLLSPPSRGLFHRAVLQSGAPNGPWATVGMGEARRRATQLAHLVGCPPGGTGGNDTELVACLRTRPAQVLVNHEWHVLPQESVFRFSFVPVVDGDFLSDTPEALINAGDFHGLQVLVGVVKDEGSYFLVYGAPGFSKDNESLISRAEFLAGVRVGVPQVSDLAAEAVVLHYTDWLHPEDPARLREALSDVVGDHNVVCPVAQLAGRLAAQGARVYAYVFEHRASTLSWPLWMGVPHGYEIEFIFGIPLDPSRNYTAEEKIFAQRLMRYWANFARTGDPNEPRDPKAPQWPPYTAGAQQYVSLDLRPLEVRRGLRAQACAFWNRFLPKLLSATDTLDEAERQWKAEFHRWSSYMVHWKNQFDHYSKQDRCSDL

[5] = target: T2, Acetylcholinesterase (Rattus norvegicus, UniProt P37136); test: Inhibition of rat cortex AchE using acetylthiocholine iodide as substrate by Ellman's method
T2 sequence (P37136 whole entry): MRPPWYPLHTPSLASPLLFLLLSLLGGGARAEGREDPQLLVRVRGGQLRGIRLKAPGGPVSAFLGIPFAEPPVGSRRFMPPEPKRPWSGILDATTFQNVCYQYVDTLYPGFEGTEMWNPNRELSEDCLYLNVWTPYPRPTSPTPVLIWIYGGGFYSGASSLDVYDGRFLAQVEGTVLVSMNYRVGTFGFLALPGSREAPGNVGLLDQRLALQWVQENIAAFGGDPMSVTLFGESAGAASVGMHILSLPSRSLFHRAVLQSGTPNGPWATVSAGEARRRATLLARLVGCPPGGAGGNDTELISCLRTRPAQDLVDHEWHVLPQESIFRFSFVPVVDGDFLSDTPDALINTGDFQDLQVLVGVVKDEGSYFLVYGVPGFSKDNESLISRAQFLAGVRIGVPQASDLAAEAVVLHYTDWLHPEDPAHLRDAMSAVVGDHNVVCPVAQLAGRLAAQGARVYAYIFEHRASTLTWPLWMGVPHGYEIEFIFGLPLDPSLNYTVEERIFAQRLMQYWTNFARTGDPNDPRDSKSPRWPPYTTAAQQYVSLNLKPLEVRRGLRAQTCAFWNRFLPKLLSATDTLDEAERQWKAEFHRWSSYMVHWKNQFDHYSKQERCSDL

[6] = Selectivity index, ratio of IC50 for human serum BChE to IC50 for rat cortex AchE
[7] = target: T3, Acetylcholinesterase (Bos taurus, UniProt P23795); test: Inhibition of bovine erythrocyte AchE using acetylthiocholine as substrate by Ellman's method
T3 sequence (P23795 whole entry): T1 sequence (whole entry)

[8] = target: Cholinesterase (Homo sapiens, UniProt P06276); test: Inhibition of BuChE (unknown origin)
Sequence of Cholinesterase (P06276 whole entry): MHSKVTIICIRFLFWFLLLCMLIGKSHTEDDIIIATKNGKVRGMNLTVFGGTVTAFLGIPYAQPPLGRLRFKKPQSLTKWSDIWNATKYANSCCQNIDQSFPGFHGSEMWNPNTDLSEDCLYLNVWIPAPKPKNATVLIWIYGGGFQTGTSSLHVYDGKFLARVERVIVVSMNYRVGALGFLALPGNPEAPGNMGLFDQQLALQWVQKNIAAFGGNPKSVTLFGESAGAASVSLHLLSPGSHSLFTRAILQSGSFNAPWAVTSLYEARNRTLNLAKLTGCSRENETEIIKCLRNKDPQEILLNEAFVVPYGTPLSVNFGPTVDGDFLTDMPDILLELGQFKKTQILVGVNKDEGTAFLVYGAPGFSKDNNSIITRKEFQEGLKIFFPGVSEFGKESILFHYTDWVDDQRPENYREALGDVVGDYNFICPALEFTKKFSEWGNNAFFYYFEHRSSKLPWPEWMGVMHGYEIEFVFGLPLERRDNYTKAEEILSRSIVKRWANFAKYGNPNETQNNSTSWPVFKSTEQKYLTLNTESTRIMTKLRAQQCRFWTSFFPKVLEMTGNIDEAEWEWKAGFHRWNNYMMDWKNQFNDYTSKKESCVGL

Question: What does the source list for `O=C(CCCCCCNc1c2c(nc3cc(Cl)ccc13)CCCC2)NCCc1c[nH]c2ccccc12`?
Answer: inhibition [1]: 34%; inhibition [2]: 35%; inhibition [3]: 42%

Question: For `O=C(CCCC1CCSS1)NCCCNc1c2c(nc3cc(Cl)ccc13)CCCC2` (stereo not given), which IC50 [4] is on record?
Answer: 253 nM

Question: With `c1ccc2c(NCCCCCCCCNc3c4c(nc5c3CCCC5)CCCC4)c3c(nc2c1)CCCC3` as the molecule, how does the IC50 [5] read?
Answer: 0.2 nM

Question: And the Ratio IC50 [6]?
Answer: 221

Question: Which inhibition [1] does the source give for `O=C(CCCCCNc1c2c(nc3ccccc13)CCCC2)NCCc1c[nH]c2ccccc12` here?
Answer: 34%

Question: What about the inhibition [2] of the same molecule?
Answer: 35%

Question: And the IC50 [7]?
Answer: 1 nM

Question: And the inhibition [3]?
Answer: 42%

Question: Which IC50 [8] does the source give for `Cc1c(C)c2c(c(C)c1O)CCC(C)(C(=O)NCCCCCCCCNc1c3c(nc4cc(Cl)ccc14)CCCC3)O2` (stereo not given) here?
Answer: 54 nM

Question: Which IC50 [5] does the source give for `Clc1ccc2c(NCCCCCCCCCNc3c4c(nc5c3CCCC5)CCCC4)c3c(nc2c1)CCCC3` here?
Answer: 0.3 nM

Question: And the Ratio IC50 [6]?
Answer: 647

Question: Which IC50 [5] does the source give for `Clc1ccc2c(NCCCCCCCCNc3c4c(nc5ccccc35)CCCC4)c3c(nc2c1)CCCC3` here?
Answer: 0.07 nM

Question: And the Ratio IC50 [6]?
Answer: 371
